Experimental data as given in patent US5876715A, “Antibodies that bind novel carbohydrate ligands (myelorollins) that cause E-selectin dependent cell rolling, and uses thereof” (The Biomembrane Institute, priority 1996, dated 1999).
“Also recorded” adds a separate entry of the source.

Tested on: E-selectin-expressing CHO cells
Assay: Rolling and adhesion of E-selectin-expressing CHO cells on ganglioside-coated beads under dynamic flow (parallel plate laminar flow chamber)
Assay type: cell-based, Chinese hamster
Settings: for rolling of E-selectin-expressing CHO cells / adhesion of E-selectin-expressing CHO cells / rolling and adhesion of E-selectin-expressing CHO cells: dynamic flow conditions, shear stress 0.6-12 dynes/cm^2; for rolling and adhesion of E-selectin-expressing CHO cells at 100 ng ganglioside: 100 ng of single fraction or mixture of 50 ng each, 1 μm beads, 4.8 and 2.4 dynes/cm^2 (FIG. 3A); for rolling and adhesion of E-selectin-expressing CHO cells at low ganglioside quantity: 0.05-0.1 ng ganglioside per spot (mixture 0.05 ng each), 1 μm beads (FIGS. 3B, 4A, 4B)
Text: FIGS. 2A-2E show rolling and adhesion of E-selectin-expressing CHO cells to polystyrene beads coated with various gangliosides under dynamic flow conditions. Various poly-LacNac gangliosides were quantitatively adsorbed on beads affixed to glass microscope slides as described in the Materials & Methods section in the EXAMPLE. These polystyrene beads affixed on galss plates are resistant to dynamic flow. GSL coated on beads are therefore very stable in dynamic flow. Slides were blocked by placing 2% BSA in PBS at room temp for 1 hr, and assembled in a parallel-plate laminar-flow chamber. E-selectin-expressing CHO cells were freshly harvested and suspended in RPMI medium (1×10^5 cells/mL). The cell suspensions were placed in an infusion pump connected to the flow chamber, and infused into the assembly at various laminar flow rates. Cell movements were observed under phase-contrast microscope and recorded by videocassette recorder. Numbers of rolling cells (.smallcircle.) and adherent (nonrolling) cells (.circle-solid.), in at least 10 microscope fields, at four different shear stresses (dynes/cm^2; see abscissa), were plotted.
Polystyrene latex beads ([…] or 1 μm) used as carriers of GSLs as above were suspended in ethanol. 1 μL aliquots of suspension were placed on precleaned and specially treated microscope slides (Labcraft Superfrost® Plus, Curtin Matheson Scientific, Houston, Tex.). Beads were distributed homogeneously on the glass surface within a circular spot with diameter about 1 cm. Slides were heated at 150° C. for 50 sec, which caused the beads to adhere strongly to the surface such that they could not be washed off by water stream at various velocities. Gangliosides dissolved in IHW at the same molar concentration were applied to latex beads affixed on the slides; namely, 1 μL aliquots containing 50-100 or 0.05-0.1 ng ganglioside were placed on the center of a circular spot. The ganglioside thus became affixed to the bead surface.
Slides prepared as above, as they are or after treatment consisted of incubating said slides for at least an hour at room temperature with 3% BSA prewarmed at 37° C. and washing with PBS containing CA^2+ /Mg^2+ (i.e., PBS(+)) were placed in a parallel plate laminar flow chamber connected to an infusion pump (model 935, Harvard Apparatus, Cambridge, Mass.). The assembly, originally described by Lawrence et al. (Lawrence et al., 1990, Blood 75:227-237; Lawrence and Springer, 1991, Cell 65:859-873), simulates the flow shear stress present in physiological microvascular environments. A laminar flow with defined rate and wall shear stress is achieved by manipulation of the infusion pump, which is connected to the inlet of the flow chamber. A suspension of E- or P-selectin-expressing CHO cells (1×10^5 /mL in FIGS. 2A-2E, 2×10^5/ cells mL in FIG. 3A, 5×10^5 /cells mL in FIGS. 3B, 4A and 4B), freshly harvested from culture with EDTA, washed, and resuspended in 1% FCS-RPMI medium, was infused into the assembly at various laminar flow rates. Cell movements were observed under inverted phase-contrast microscope (Diaphot-TMD, Nikon) and recorded by time-lapse videocassette recorder. Cell rolling and adhesion were observed, and numbers of rolling and adherent cells during a 2 min period at shear stresses, from 0.6-12.0 dynes/cm^2 were counted from at least 10 fields on videotape. Wall shear stress (T) was calculated by the equation of Lawrence et al. (Lawrence et al., 1990 Blood 75:227-237; Lawrence et al., 1987, Blood 70: 1284-1290): T=3 μQ/2ba^2, where μ=coefficient of viscosity (1.0 cP), Q=volumetric flow rate (cm^3 /sec), a=half channel height (in this case, 5.7×10^-3 cm), and b=channel width (1.3 cm).
10, 13-1, and 14 (containing Str. 4-5, Str. 7-8, and Str. 9-12 in Table 1, respectively). […] 10 and 14, which have myelorollin structure and lack SLe^x epitope (FIG. 4). Polystyrene beads were affixed to glass microscope slides. Various gangliosides were coated as described in Materials & Methods. […]

Row | Substance | rolling of E-selectin-expressing CHO cells | adhesion of E-selectin-expressing CHO cells | rolling and adhesion of E-selectin-expressing CHO cells | rolling and adhesion of E-selectin-expressing CHO cells at 100 ng ganglioside (dynamic flow) | rolling and adhesion of E-selectin-expressing CHO cells at low ganglioside quantity (dynamic flow) | other results
1 | X^3 NeuAcVII^3 FucV^3 FucnLc10 Cer [Fr. 13-1] | more frequent at 4.8 and 2.4 than at 1.2 dynes/cm^2; also recorded: caused strong rolling |  |  |  |  | shear stress at which plain rolling and rolling followed by adhesion was maximal / most clearly observed (dynamic flow, 12, 4.8, 2.4, 1.2 and 0.6 dynes/cm^2 (FIGS. 6A-6D)): 2.4 dynes/cm^2; shear stress at which rolling (rolling/adhesion) was highest (dynamic flow, ganglioside on 1 μm beads (FIGS. 2D, 2E)): 4.8 dynes/cm^2
2 | VI^3 NeuAcnLc6 Cer [Fr. 7] |  | no cell adhesion |  |  |  | 
3 | X^3 NeuAcVII^3 FucnLc10 Cer [Fr. 12-2] |  |  | lower than for Frs. 13-1 and 14 (FIGS. 2C and 2E), but comparable to SLe^x -Le^x; also recorded: lower than for Fr. 13-1 and 14 (FIG. 2C and FIG. 2E), but comparable to SLe^x -Le^x |  |  | Number of E-selectin expressing cells adhered on myelorollin under dynamic flow, column 5 (0.6-1.2 dynes/cm^2, column head 5 (not explained)): 5 (±2); Number of E-selectin expressing cells adhered on myelorollin under dynamic flow, column 10 (0.6-1.2 dynes/cm^2, column head 10 (not explained)): 3 (±1); shear stress at which rolling was highest (dynamic flow, ganglioside on 4 μm beads (FIG. 2B)): 4.8 dynes/cm^2
4 | VIII^3 NeuAcV^3 FucnLc8 Cer [Fr. 10-1] |  |  | strong rolling and adhesion | comparable rolling and Vadhesion; also recorded: comparable to each other; also recorded: comparable adhesion | did not | rolling and adhesion of E-selectin-expressing CHO cells at 100 ng ganglioside (dynamic flow, listed as 10-1): comparable
5 | VI^3 NeuAcV^3 FucIII^3 FucnLc6 Cer [SLe^x -Le^x, reference compound] | not observed (or barely observed); also recorded: No rolling was observed | Low level of adhesion without rolling; also recorded: adherent, but not rolling; also recorded: significantly lower than for Fr. 13-1 or 14; also recorded: only weak adhesion compared to Fr. 10-1, 10-2, 13-1 and 14; also recorded: relatively weak adhesion compared to Fr. 10-1, 10-2, 13-1, and 14 | weaker than myelorollin structures; also recorded: weaker than myeloglycan or myelorollin structures |  | no rolling or adhesion; also recorded: no rolling and adhesion observed; also recorded: essentially no cell rolling and adhesion; also recorded: did not cause any E-selectin-dependent cell rolling or adhesion | adhesion of E-selectin-expressing CHO cells (listed as Str. 3): did produce cell adhesion, but to a lesser extent than the myelorollin fractions; also recorded: lower level of adhesion; rolling of E-selectin-expressing CHO cells (listed as Str. 3): no cell rolling; rolling of E-selectin-expressing CHO cells (listed as sialyl Le^x -Le^x): No rolling was observed; rolling number (dynamic flow, 4 μm beads, every field at all shear stresses (FIG. 2A)): 0; number of cells adhered without rolling (dynamic flow, shear stresses 12 to 1.2 dynes/cm^2 (FIG. 6A)): less than 5 /field
6 | VIII^3 NeuAcIII^3 FucnLc8 Cer [Fr. 10-2] |  |  | strong rolling and adhesion | comparable rolling and Vadhesion; also recorded: comparable to each other; also recorded: comparable adhesion | still produced marked rolling and adhesion | rolling and adhesion of E-selectin-expressing CHO cells at 100 ng ganglioside (dynamic flow, listed as 10-2): comparable; rolling and adhesion of E-selectin-expressing CHO cells at low ganglioside quantity (dynamic flow, listed as 10-2): still produced marked rolling/adhesion
